Reference: US11767322B2 (BRISTOL-MYERS SQUIBB COMPANY, priority 2020, dated 2023)
Like-named read-outs stand apart in the source and are kept apart here.

Columns and labels:
[1] = biological target: T1, His-GST-TVMV-hRIPK1(1-324) (Homo sapiens, UniProt Q13546); assay: biochemical; format: binding
T1 construct: The coding region of human RIPK1(1-324) flanked by NdeI site at 5′ end; made in house; host or cells: Spodoptera frugiperda Sf9 insect cells (baculovirus, Bac-to-Bac)
T1 sequence (Q13546 1-324): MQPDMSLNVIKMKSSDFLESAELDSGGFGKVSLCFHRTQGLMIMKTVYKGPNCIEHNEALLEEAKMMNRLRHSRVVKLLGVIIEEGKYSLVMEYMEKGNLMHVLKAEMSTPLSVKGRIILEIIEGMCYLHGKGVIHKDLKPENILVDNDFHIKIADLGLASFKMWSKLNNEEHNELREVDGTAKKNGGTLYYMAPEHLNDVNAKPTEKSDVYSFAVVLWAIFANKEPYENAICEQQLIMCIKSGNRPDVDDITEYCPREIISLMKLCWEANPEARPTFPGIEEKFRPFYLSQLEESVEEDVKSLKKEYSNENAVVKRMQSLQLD

[2] = tested on: MLKL phosphorylation in HT29-L23 human colorectal adenocarcinoma cells; assay: MLKL phosphorylation high-content assay; format: cell-based
[3] = HTRF probe displacement, 1 h at rt, read-out: RIPK1 IC50
[4] = Homo sapiens, 6 h, read-out: pMLKL IC50, HT29-L23 cells, necroptosis induced with TNFα, SMAC mimetic and Z-VAD, 6 h, maximal inhibition defined by Nec1s
[5] = read-out: pMLKL IC50, HT29-L23 cells, necroptosis induced with TNFα, SMAC mimetic and Z-VAD, 6 h, maximal inhibition defined by Nec1s

Row | SMILES | IC50 [1, 3] | IC50 [2, 4] | IC50 [2, 5] | further results
1 | Cc1ccc(-c2ccn3nc(N)nc3c2)c(F)c1C(=O)NCC[C@H](O)c1ccc(Cl)cc1 [Example 151, (S)-3-(2-amino-[1,2,4]triazolo[1,5-a]pyridin-7-yl)-N-(3-(4-chlorophenyl)-3-hydroxypropyl)-2-fluoro-6-methylbenzamide] | 2.8 nM | 0.8 nM | – | IC50 ([1]; Table 22, compounds of the present invention, read-out: RPIK1 IC50): 3.5 nM; IC50 ([2]; Homo sapiens, read-out: pMLKL IC50, Table 22, compounds of the present invention): 0.8 nM
2 | CCc1cc(F)c(-c2ccn3nc(N)nc3c2)cc1C(=O)NCC[C@H](O)c1ccc(Cl)cc1 [Example 157] | 3.1 nM | 6.7 nM | – | –
3 | Nc1nc2cc(-c3ccc(Cl)c(C(=O)NCC(F)(F)C(O)c4ccc(C(F)(F)F)cc4F)c3F)ccn2n1 (stereo not drawn) [Example 164, 3-(2-amino-[1,2,4]triazolo[1,5-a]pyridin-7-yl)-6-chloro-N-(2,2-difluoro-3-(2-fluoro-4-(trifluoromethyl)phenyl)-3-hydroxypropyl)-2-fluorobenzamide] | 2.8 nM | 2.9 nM | – | –
4 | Nc1nc2cc(-c3ccc(Cl)c(C(=O)NCC(F)(F)C(O)c4ccc(C(F)(F)F)cc4F)c3F)ccn2n1 (stereo not drawn) [Example 165, 3-(2-amino-[1,2,4]triazolo[1,5-a]pyridin-7-yl)-6-chloro-N-(2,2-difluoro-3-(2-fluoro-4-(trifluoromethyl)phenyl)-3-hydroxypropyl)-2-fluorobenzamide] | 1.6 nM | – | 2.8 nM | –
5 | Cc1ccc(C(O)C(F)(F)CNC(=O)c2c(Cl)ccc(-c3ccn4nc(N)nc4c3)c2F)cc1 (stereo not drawn) [Example 173, 3-(2-amino-[1,2,4]triazolo[1,5-a]pyridin-7-yl)-6-chloro-N-(2,2-difluoro-3-hydroxy-3-(p-tolyl)propyl)-2-fluorobenzamide] | 0.9 nM | 0.9 nM | – | –
6 | Cc1cccc(C(O)C(F)(F)CNC(=O)c2c(Cl)ccc(-c3ccn4nc(N)nc4c3)c2F)c1 (stereo not drawn) [Example 174, 3-(2-amino-[1,2,4]triazolo[1,5-a]pyridin-7-yl)-6-chloro-N-(2,2-difluoro-3-hydroxy-3-(m-tolyl)propyl)-2-fluorobenzamide] | 2.8 nM | – | 1.4 nM | –
7 | Cc1nc(C)c(-c2ccn3nc(N)nc3c2)cc1C(=O)NCC(O)Cc1ccccc1 (stereo not drawn) [Example 174] | – | – | – | IC50 ([1]; Table 23, representative compounds from WO2018/148626, read-out: RIPK1 IC50): 48 nM; IC50 ([2]; Homo sapiens, Table 23, representative compounds from WO2018/148626, read-out: pMLKL IC50): 205 nM
8 | Cc1cccc(C(O)C(F)(F)CNC(=O)c2c(Cl)ccc(-c3ccn4nc(N)nc4c3)c2F)c1 (stereo not drawn) [Example 175, 3-(2-amino-[1,2,4]triazolo[1,5-a]pyridin-7-yl)-6-chloro-N-(2,2-difluoro-3-hydroxy-3-(m-tolyl)propyl)-2-fluorobenzamide] | 2.7 nM | – | 7.8 nM | –
9 | Nc1nc2cc(-c3ccc(Cl)c(C(=O)NCC(F)(F)C(O)c4cc(Cl)ccc4F)c3F)ccn2n1 (stereo not drawn) [Example 180, 3-(2-amino-[1,2,4]triazolo[1,5-a]pyridin-7-yl)-6-chloro-N-(3-(5-chloro-2-fluorophenyl)-2,2-difluoro-3-hydroxypropyl)-2-fluorobenzamide] | 2 nM | – | 10 nM | –
10 | Nc1nc2cc(-c3ccc(Cl)c(C(=O)NCC(F)(F)C(O)c4cc(Cl)ccc4F)c3F)ccn2n1 (stereo not drawn) [Example 181, 3-(2-amino-[1,2,4]triazolo[1,5-a]pryidin-7-yl)-6-chloro-N-(3-(5-chloro-2-fluorophenyl)-2,2-difluoro-3-hydroxypropyl)-2-fluorobenzamide] | 1.7 nM | – | 0.3 nM | –
11 | Cc1ccc(C(O)C(F)(F)CNC(=O)c2c(Cl)ccc(-c3ccn4nc(N)nc4c3)c2F)c(F)c1 (stereo not drawn) [Example 182, 3-(2-amino-[1,2,4]triazolo[1,5-a]pyridin-7-yl)-6-chloro-N-(2,2-difluoro-3-(2-fluoro-4-methylphenyl)-3-hydroxypropyl)-2-fluorobenzamide] | 1.2 nM | – | 2.9 nM | –
12 | Cc1ccc(C(O)C(F)(F)CNC(=O)c2c(Cl)ccc(-c3ccn4nc(N)nc4c3)c2F)c(F)c1 (stereo not drawn) [Example 183, 3-(2-amino-[1,2,4]triazolo[1,5-a]pyridin-7-yl)-6-chloro-N-(2,2-difluoro-3-(2-fluoro-4-methylphenyl)-3-hydroxypropyl)-2-fluorobenzamide] | 0.4 nM | – | 1 nM | –
13 | Nc1nc2cc(-c3ccc(Cl)c(C(=O)NCC(F)(F)C(O)c4cccc(Cl)c4)c3F)ccn2n1 (stereo not drawn) [Example 192, 3-(2-amino-[1,2,4]triazolo[1,5-a]pyridin-7-yl)-6-chloro-N-(3-(3-chlorophenyl)-2,2-difluoro-3-hydroxypropyl)-2-fluorobenzamide] | 3.5 nM | – | 1.2 nM | –
14 | Nc1nc2cc(-c3ccc(Cl)c(C(=O)NCC(F)(F)C(O)c4cccc(Cl)c4)c3F)ccn2n1 (stereo not drawn) [Example 193, 3-(2-amino-[1,2,4]triazolo[1,5-a]pyridin-7-yl)-6-chloro-N-(3-(3-chlorophenyl)-2,2-difluoro-3-hydroxypropyl)-2-fluorobenzamide] | 8.7 nM | – | 15 nM | –
15 | Nc1nc2cc(-c3ccc(Cl)c(C(=O)NCC(F)(F)Cc4ccc(F)cc4)c3F)ccn2n1 [Example 207, 3-(2-amino-[1,2,4]triazolo[1,5-a]pyridin-7-yl)-6-chloro-N-(2,2-difluoro-3-(4-fluorophenyl)propyl)-2-fluorobenzamide] | 1.8 nM | 0.6 nM | – | –
16 | Cc1ccc(-c2ccn3nc(N)nc3c2)c(F)c1C(=O)NCC(F)(F)Cc1ccc(F)cc1 [Example 208, 3-(2-amino-[1,2,4]triazolo[1,5-a]pyridin-7-yl)-N-(2,2-difluoro-3-(4-fluorophenyl)propyl)-2-fluoro-6-methylbenzamide] | 2.6 nM | 0.2 nM | – | –
17 | [2H]C([2H])([2H])c1ccc(-c2ccn3nc(N)nc3c2)c(F)c1C(=O)NC[C@H](F)[C@](C)(O)c1ccc(F)cc1 [Example 215, 3-(2-amino-[1,2,4]triazolo[1,5-a]pyridin-7-yl)-2-fluoro-N-((1S,3R)-2-fluoro-3-(4-fluorophenyl)-3-hydroxybutyl)-6-(methyl-d3)benzamide] | 8.7 nM | 6.6 nM | – | –
18 | [2H]C([2H])([2H])c1ccc(-c2ccn3nc(N)nc3c2)c(F)c1C(=O)NC[C@@H](F)[C@@](C)(O)c1ccc(F)cc1 [Example 216, 3-(2-amino-[1,2,4]triazolo[1,5-a]pyridin-7-yl)-2-fluoro-N-((2R,3S)-2-fluoro-3-(4-fluorophenyl)-3-hydroxybutyl)-6-(methyl-d3)benzamide] | 4.7 nM | 0.4 nM | – | –
19 | Cc1ccc(-c2ccn3nc(N)nc3c2)c(F)c1C(=O)NCC(F)(F)C(C)(O)c1ccc(C(F)(F)F)cc1 (stereo not drawn) [Example 227, 3-(2-amino-[1,2,4]triazolo[1,5-a]pyridin-7-yl)-N-(2,2-difluoro-3-hydroxy-3-(4-(trifluoromethyl)phenyl)butyl)-2-fluoro-6-methylbenzamide] | 15 nM | 0.7 nM | – | –
20 | Cc1ccc(-c2ccn3nc(N)nc3c2)c(F)c1C(=O)NCCC(C)(F)c1ccc(Cl)cc1 (stereo not drawn) [Example 228, 3-(2-amino-[1,2,4]triazolo[1,5-a]pyridin-7-yl)-N-(3-(4-chlorophenyl)-3-fluorobutyl)-2-fluoro-6-methylbenzamide] | 0.9 nM | 1 nM | – | –
21 | Nc1nc2cc(-c3ccc(Cl)c(C(=O)NCC(F)(F)C4(c5ccc(F)cc5)COC4)c3F)ccn2n1 [Example 245, 3-(2-amino-[1,2,4]triazolo[1,5-a]pyridin-7-yl)-6-chloro-N-(2,2-difluoro-2-(3-(4-fluorophenyl)oxetan-3-yl)ethyl)-2-fluorobenzamide] | 19 nM | 3.7 nM | – | –
22 | Cc1ccc(-c2ccn3nc(N)nc3c2)c(F)c1C(=O)NCC(F)(F)C1(c2ccc(F)cc2)COC1 [Example 246, 3-(2-amino-[1,2,4]triazolo[1,5-a]pyridin-7-yl)-N-(2,2-difluoro-2-(3-(4-fluorophenyl)oxetan-3-yl)ethyl)-2-fluoro-6-methylbenzamide] | 15 nM | 2.2 nM | – | –
23 | Nc1nc2cc(-c3ccc(Cl)c(C(=O)NCC(F)(F)C(O)C4CCC(F)(F)CC4)c3F)ccn2n1 (stereo not drawn) [Example 257, 3-(2-amino-[1,2,4]triazolo[1,5-a]pyridin-7-yl)-6-chloro-N-(3-(4,4-difluorocyclohexyl)-2,2-difluoro-3-hydroxypropyl)-2-fluorobenzamide] | 8.9 nM | 5.9 nM | – | –
24 | COC(=O)c1ccc(CCCNC(=O)c2c(Cl)ccc(-c3ccn4nc(N)nc4c3)c2F)cc1 [Example 273, methyl 4-(3-(3-(2-amino-[1,2,4]triazolo[1,5-a]pyridin-7-yl)-6-chloro-2-fluorobenzamido)propyl)benzoate] | 3.9 nM | 37 nM | – | –
25 | Cc1ccc(-c2ccn3nc(N)nc3c2)c(F)c1C(=O)NCC(F)(F)C(O)(c1ccc(F)cc1)C(F)F (stereo not drawn) [Example 274, 3-(2-amino-[1,2,4]triazolo[1,5-a]pyridin-7-yl)-2-fluoro-6-methyl-N-(2,2,4,4-tetrafluoro-3-(4-fluorophenyl)-3-hydroxybutyl)benzamide] | 19 nM | 0.7 nM | – | –
26 | Cc1ccc(-c2ccn3nc(N)nc3c2)c(F)c1C(=O)NCC(F)(F)C(N)c1ccc(F)cc1 (stereo not drawn) [Example 275, N-(3-amino-2,2-difluoro-3-(4-fluorophenyl)propyl)-3-(2-amino-[1,2,4]triazolo[1,5-a]pyridin-7-yl)-2-fluoro-6-methylbenzamide] | 6.5 nM | 1.5 nM | – | –
